The values below come from PubChem BioAssay (NCI).

Among the test systems are DMS 114 small cell lung; DMS 273 small cell lung; KM20L2 colon; M19-MEL melanoma; SNB-78 CNS; XF 498 CNS; HOP-18 NSCLC; P388 leukemia; P388/ADR leukemia; SN12K1 renal.
What all share (experiment): NCI tumour cell line growth inhibition, 48 h

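Cultured in 96-well plates, cells were exposed to test compound for 48 hours across five concentrations. TGI is the concentration that stops growth completely.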

Turning to `Cc1ccc(S(=O)(=O)OC(c2ccc(Cl)cc2Cl)C2OC(=O)c3ccccc32)cc1` (configuration not stated), the TGI in the test with DMS 114 small cell lung, in the test on DMS 273 small cell lung, in the test with KM20L2 colon, in the test on M19-MEL melanoma, with SNB-78 CNS and with XF 498 CNS was over 100 µM each time.

For `C=C(C)C(=O)OC1CCC2(C)C(CCC3C2CCC2(C)C(c4ccc(=O)oc4)CC4OC432)C1` (configuration not stated), the TGI in the test on DMS 114 small cell lung worked out at 9.11 µM; in the test with DMS 273 small cell lung, 20.5 µM; with HOP-18 NSCLC, 104 µM; with KM20L2 colon, 40.4 µM; in the test on M19-MEL melanoma it was 10.7 µM; in the test with P388 leukemia it was 15.5 µM. In addition, the TGI with P388/ADR leukemia came out at 31.7 µM; in the test on SN12K1 renal, 17.6 µM; in the test with SNB-78 CNS, 60.7 µM; in the test with XF 498 CNS it was 21 µM.

Consider `Clc1ccccc1/C=C/c1cscn1`, for which the TGI in the test with DMS 114 small cell lung, in the test on M19-MEL melanoma, in the test on SNB-78 CNS and in the test with XF 498 CNS was over 100 µM in each case.

`CCN(CC)CC(=O)O[C@]1(CC)C(=O)OCc2c1cc1n(c2=O)Cc2cc3ccccc3nc2-1`: the TGI with DMS 114 small cell lung was 0.362 µM; in the test with DMS 273 small cell lung it was 0.0304 µM; with HOP-18 NSCLC, over 100 µM; in the test on KM20L2 colon, 0.887 µM; with M19-MEL melanoma, 0.738 µM; in the test on SNB-78 CNS, over 100 µM. In addition, the TGI in the test with XF 498 CNS stood at 2.19 µM.
